Experimental data reported in patent US9978954B2, “Benzobis (thiadiazole) derivative, ink comprising same, and organic electronic device comprising same” (UBE INDUSTRIES, LTD., priority 2013, dated 2018).

Assay: Evaluation of solubility in organic solvents (visual observation of complete dissolution)
Format: physicochemical
Procedure: [Evaluation of Solubility]
The evaluation of the solubility of the synthesized compound was conducted by the following method.
About 2-3 mg of the compound was precisely weighed, and each solvent was added to the compound such that a predetermined concentration of the solute (0.5 wt %, 0.3 wt %, 0.2 wt %, 0.1 wt %, 0.05 wt %, or 0.03 wt %) was reached. The resultant mixture was stirred for 30 minutes at a predetermined temperature, and then it was evaluated by visual appearance observation whether or not the solute (synthesized compound) was completely dissolved in the solvent, which was the result of the evaluation of the solubility. As the solvent, chloroform (boiling point 61° C.), toluene (boiling point 111° C.), xylene (boiling point 144° C.), mesitylene (boiling point 165° C.), chlorobenzene (boiling point 130° C.), para-chlorotoluene (boiling point 162° C.), and ortho-dichlorobenzene (boiling point 181° C.) were used.

## CCCCCCCCCCC(F)(F)c1ccc(-c2ccc(-c3c4c(c(-c5ccc(-c6ccc(C(F)(F)CCCCCCCCCC)cc6)s5)c5nsnc35)N=S=N4)s2)cc1 [Compound (RC3), 4,8-bis[5-(4-(1,1-difluoroundecyl)phenyl)thiophene-2-yl]benzo[1,2-c:4,5-c′]bis[1,2,5]thiadiazole, reference compound]
chlorobenzene, 60° C.
  solubility (solute concentration completely dissolved): < 0.03 wt %
mesitylene, 60° C.
  solubility (solute concentration completely dissolved): < 0.03 wt %
toluene, 60° C.
  solubility (solute concentration completely dissolved): < 0.03 wt %

## FC(F)(F)Sc1ccc(-c2ccc(-c3c4c(c(-c5ccc(-c6ccc(SC(F)(F)F)cc6)s5)c5nsnc35)N=S=N4)s2)cc1 [Compound (RC5), 4,8-bis[5-(4-((trifluoromethyl)thio)phenyl)thiophene-2-yl]benzo[1,2-c:4,5-c′]bis[1,2,5]thiadiazole, reference compound]
chlorobenzene, 100° C.
  solubility (solute concentration completely dissolved): < 0.03 wt %
mesitylene, 100° C.
  solubility (solute concentration completely dissolved): < 0.03 wt %
mesitylene, 130° C.
  solubility (solute concentration completely dissolved): < 0.3 wt %
ortho-dichlorobenzene, 100° C.
  solubility (solute concentration completely dissolved): < 0.03 wt %
toluene, 100° C.
  solubility (solute concentration completely dissolved): < 0.03 wt %

## FC(F)(F)Oc1ccccc1-c1ccc(-c2c3c(c(-c4ccc(-c5ccccc5OC(F)(F)F)s4)c4nsnc24)N=S=N3)s1 [Compound (RR1), 4,8-bis[5-(2-(trifluoromethoxy)phenyl)thiophene-2-yl]benzo[1,2-c:4,5-c′]bis[1,2,5]thiadiazole, reference compound]
mesitylene, 80° C.
  solubility (solute concentration completely dissolved): ≥ 0.1 wt %
toluene, 80° C.
  solubility (solute concentration completely dissolved): ≥ 0.1 wt %

## FC(F)(F)c1ccccc1-c1ccc(-c2c3c(c(-c4ccc(-c5ccccc5C(F)(F)F)s4)c4nsnc24)N=S=N3)s1 [Compound (RR2), 4,8-bis[5-(2-(trifluoromethyl)phenyl)thiophene-2-yl]benzo[1,2-c:4,5-c′]bis[1,2,5]thiadiazole, reference compound]
chlorobenzene, 25° C.
  solubility (solute concentration completely dissolved): ≥ 0.1 wt %
mesitylene, 25° C.
  solubility (solute concentration completely dissolved): ≥ 0.1 wt %
ortho-dichlorobenzene, 25° C.
  solubility (solute concentration completely dissolved): ≥ 0.1 wt %
toluene, 25° C.
  solubility (solute concentration completely dissolved): ≥ 0.1 wt %
